Among the data in patent US12545685B2 (Daiichi Sankyo Company, Limited, priority 2011, dated 2026) are IC50 and GI50 values, retold here.

Where only a bound is given, the exact number is not on record here.

The target in test [1] is T1, Mdm2/p53 binding (GST-Mdm2 / His-p53) (Homo sapiens, UniProt Q00987, L33E).
T1 construct: Mdm2 partial protein having Mdm2 amino acids at positions 25 to 108
Kind of test: Mdm2/p53 binding assay (HTRF, His-p53 and GST-Mdm2). To be noted: His-p53 (aa 1-132) and GST-Mdm2 (aa 25-108, L33E) 6.25 nM each; 25°C, 1 hour; values given as ranges. In outline: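 Binding was detected by HTRF (ex 320 nm, em 620/665 nm) after 1 h at 25 °C, using Eu-cryptate anti-GST and XL665 anti-His antibodies. The protein pair was GST-Mdm2 (residues 25–108, L33E) with His-p53 (residues 1–132), each 6.25 nM in the protein dilution. T/C used no-compound control and no-p53 background, and IC50 came from sigmoid fitting.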

The subject of test [2] is human lung cancer-derived cell line NCI-H460 having wild-type p53. Kind of test: Cell growth inhibition assay (MTT). The test is classed as cell-based. To be noted: 72 h, NCI-H460 cells, 3 days culture, values given as ranges, read-out: 50% growth inhibition concentration (GI50 value). As to the method:
A cell growth inhibition assay was conducted using a human lung cancer-derived cell line NCI-H460 having wild-type p53.
NCI-H460 cells were suspended in a medium (RPMI1640 medium containing 10% fetal bovine serum) and the suspension was added in an amount of 500 cells/150 μl/well to a 96-well plate. A test compound was dissolved in DMSO and this solution was diluted with medium to prepare a sample solution (DMSO concentration: 1% or lower). On the next day, medium nonsupplemented with the test compound, or the sample solution, was added in an amount of 50 μl/well. Cells were then cultured at 37° ° C. for 3 days in a 5% CO2 atmosphere.
An MTT assay was conducted immediately after the nonsupplemented medium or the sample solution was added. Another MTT assay was conducted after culturing the cells for 3 days. The MIT assays were conducted as shown below.
A 5 mg/ml MTT (3-(4,5-dimethylthiazol-2-yl)-2,5-diphenyltetrazolium bromide, Sigma-Aldrich Co., M-2128) solution was prepared using a phosphate buffer solution (Dulbecco's Phosphate-buffered Saline). This MIT solution was added in an amount of 20 μl/well. Then the plate was cultured at 37° ° C. for 4 hours in a 5% CO2 atmosphere. The plate was centrifuged at 1200 rpm for 5 minutes and then the culture supernatant was removed by aspiration using a dispenser. DMSO was added in an amount of 150 μl/well to dissolve generated formazan. The plate was stirred using a plate mixer for uniform color development from each well. The absorbance of each well was measured at OD 540 nm and at a reference OD (660 nm) using a plate reader (SpectraMax PLUS384, Molecular Devices, CA, USA).
The OD value measured on the day of adding the sample solution was defined as S. The OD value measured three days after addition of the sample solution was defined as T. The OD value measured three days after addition of the DMSO dilution was defined as C. T/C (%) was determined at each concentration according to the formula shown below in order to prepare a dose response curve, from which 50% growth inhibition concentration (GI50 value) was calculated.

T1 sequence (Q00987 25-108 L33E): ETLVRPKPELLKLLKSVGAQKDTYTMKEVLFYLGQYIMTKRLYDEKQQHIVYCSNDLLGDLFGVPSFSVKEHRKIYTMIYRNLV

For `C[C@@H](O)[C@@H]1CC[C@@H](NC(=O)[C@@H]2NC3(CCC(C)(C)CC3)[C@@]3(C(=O)Nc4nc(Cl)ccc43)[C@H]2c2cccc(Cl)c2F)CO1` [Example 180, (3′R, 4′S,5′R)-6″-chloro-4′-(3-chloro-2-fluorophenyl)-N-{(3R,6S)-6-[(1R)-1-hydroxyethyl]tetrahydro-2H-pyran-3-yl}-4,4-dimethyl-2″-oxo-1″,2″-dihydrodispiro[cyclohexane-1,2′-pyrrolidine-3′,3″-pyrrolo[2,3-b]pyridine]-5′-carboxamide], the IC50 (as a rule, the concentration at which inhibition is half-maximal) in test [1] was in the range of 1 to 50 nM. Further, the GI50 in test [2] is 1000 to 5000 nM.

Take `CC1(C)CCC2(CC1)N[C@@H](C(=O)N[C@@H]1CC[C@@H](C(C)(C)O)OC1)[C@H](c1ccnc(Cl)c1F)[C@]21C(=O)Nc2cc(Cl)ccc21` [Example 17, (3′R, 4′S,5′R)-6″-chloro-4′-(2-chloro-3-fluoropyridin-4-yl)-N-[(3R,6S)-6-(1-hydroxy-1-methylethyl)tetrahydro-2H-pyran-3-yl]-4,4-dimethyl-2″-oxo-1″,2″-dihydrodispiro[cyclohexane-1,2′-pyrrolidine-3′,3″-indole]-5′-carboxamide]: the IC50 in test [1] lay within 50 to 100 nM. In test [2], the GI50 lay within 100 to 500 nM.

Take `CC1(C)CCC2(CC1)N[C@@H](C(=O)N[C@@H]1CC[C@@H](C(=O)O)OC1)[C@H](c1ccnc(Cl)c1F)[C@]21C(=O)Nc2cc(Cl)ccc21` [Example 174, (2S,5R)-5-({[(3′B, 4′S,5′R)-6″-chloro-4′-(2-chloro-3-fluoropyridin-4-yl)-4,4-dimethyl-2″-oxo-1′″, 2″-dihydrodispiro[cyclohexane-1,2-pyrrolidine-3′,3″-indole]-5′-yl]carbonyl}amino)tetrahydro-2H-pyran-2-carboxylic acid]: the IC50 in test [1] was in the range of 1 to 50 nM. Besides, in test [2], the GI50 is over 5000 nM.

`CC1(C)CCC2(CC1)N[C@@H](C(=O)N[C@@H]1CC[C@@H](CCO)OC1)[C@H](c1ccnc(Cl)c1F)[C@]21C(=O)Nc2cc(Cl)ccc21` [Example 160, (3′R, 4′S,5′R)-6″-chloro-4′-(2-chloro-3-fluoropyridin-4-yl)-N-[(3R,6S)-6-(2-hydroxyethyl)tetrahydro-2H-pyran-3-yl]-4,4-dimethyl-2″-oxo-1″,2″-dihydrodispiro[cyclohexane-1,2′-pyrrolidine-3′,3″-indole]-5′-carboxamide] yielded an IC50 in test [1] of 50 to 100 nM. The GI50 in test [2] was under 100 nM.

As to `CC1(C)CCC2(CC1)N[C@@H](C(=O)N[C@@H]1CC[C@@H](c3nnco3)OC1)[C@H](c1ccnc(Cl)c1F)[C@]21C(=O)Nc2cc(Cl)ccc21` [Example 34, (3′R, 4′S,5′R)-6″-chloro-4′-(2-chloro-3-fluoropyridin-4-yl)-4,4-dimethyl-N-[(3R,6S)-6-(1,3,4-oxadiazol-2-yl)tetrahydro-2H-pyran-3-yl]-2″-oxo-1″,2″-dihydrodispiro[cyclohexane-1,2′-pyrrolidine-3′,3″-indole]-5′-carboxamide], the IC50 in test [1] was 1 to 50 nM. For the same molecule, the GI50 in test [2] is 100 to 500 nM.

In test [1], `CC1(C)CCC2(CC1)N[C@@H](C(=O)N[C@@H]1CC[C@@H](C(C)(C)O)OC1)[C@H](c1cccc(Cl)c1F)[C@]21C(=O)Nc2nc(Cl)ccc21` [Example 11, (3′R, 4′S,5′R)-6″-chloro-4′-(3-chloro-2-fluorophenyl)-N-[(3R,6S)-6-(1-hydroxy-1-methylethyl)tetrahydro-2H-pyran-3-yl]-4,4-dimethyl-2″-oxo-1″,2″-dihydrodispiro[cyclohexane-1,2′-pyrrolidine-3′,3″-pyrrolo[2,3-b]pyridine]-5′-carboxamide] returned an IC50 of 1 to 50 nM. For the same molecule, the GI50 in test [2] lay within 500 to 1000 nM.

The molecule `CC1(C)CCC2(CC1)N[C@@H](C(=O)N[C@@H]1CC[C@@H](CC(N)=O)OC1)[C@H](c1ccnc(Cl)c1F)[C@]21C(=O)Nc2cc(Cl)ccc21` [Example 111, (3′R, 4′S,5′R)—N-[(3R,6S)-6-(2-amino-2-oxoethyl)tetrahydro-2H-pyran-3-yl]-6″-chloro-4′-(2-chloro-3-fluoropyridin-4-yl)-4,4-dimethyl-2″-oxo-1″,20-dihydrodispiro[cyclohexane-1,2′-pyrrolidine-3′,3″-indole]-5′-carboxamide] displayed an IC50 in test [1] of 1 to 50 nM. The GI50 in test [2] was in the range of 100 to 500 nM.
